Reference: publication PMC5373622, “Screening for AMPA receptor auxiliary subunit specific modulators” (PLoS ONE, 2017)
“And” between values parts separate entries of the source, which are not always exact repeats. Identical values can stand only once. Like-named read-outs stand apart in the source and are kept apart here.

Tests used:
[1] = molecular target: GluA2flip(R)-stargazin (A2R-stg TetON HEK293 cells) (Homo sapiens, UniProt P42262, Q607R); test: Voltage-sensitive dye (VSD) assay (primary screen, counter-screen, CRC) on A2R-stg cells; settings: for BaselineReturn: max 250-255 s minus min 0-5 s; for CMPDmaxmin: max-min 8-100 s; for CMPDmaxmin / CMPDSlope: only compound present; for Glumaxmin: max-min normalized value 301-380 s; for Glumaxmin / GluSlope: compound and glutamate present; for GluSlope: slope 310-315 s; for CMPDSlope: slope 11-18 s
Sequence of GluA2flip(R)-stargazin (A2R-stg TetON HEK293 cells) (P42262 25-883 isoform P42262-2 Q607R limits assumed): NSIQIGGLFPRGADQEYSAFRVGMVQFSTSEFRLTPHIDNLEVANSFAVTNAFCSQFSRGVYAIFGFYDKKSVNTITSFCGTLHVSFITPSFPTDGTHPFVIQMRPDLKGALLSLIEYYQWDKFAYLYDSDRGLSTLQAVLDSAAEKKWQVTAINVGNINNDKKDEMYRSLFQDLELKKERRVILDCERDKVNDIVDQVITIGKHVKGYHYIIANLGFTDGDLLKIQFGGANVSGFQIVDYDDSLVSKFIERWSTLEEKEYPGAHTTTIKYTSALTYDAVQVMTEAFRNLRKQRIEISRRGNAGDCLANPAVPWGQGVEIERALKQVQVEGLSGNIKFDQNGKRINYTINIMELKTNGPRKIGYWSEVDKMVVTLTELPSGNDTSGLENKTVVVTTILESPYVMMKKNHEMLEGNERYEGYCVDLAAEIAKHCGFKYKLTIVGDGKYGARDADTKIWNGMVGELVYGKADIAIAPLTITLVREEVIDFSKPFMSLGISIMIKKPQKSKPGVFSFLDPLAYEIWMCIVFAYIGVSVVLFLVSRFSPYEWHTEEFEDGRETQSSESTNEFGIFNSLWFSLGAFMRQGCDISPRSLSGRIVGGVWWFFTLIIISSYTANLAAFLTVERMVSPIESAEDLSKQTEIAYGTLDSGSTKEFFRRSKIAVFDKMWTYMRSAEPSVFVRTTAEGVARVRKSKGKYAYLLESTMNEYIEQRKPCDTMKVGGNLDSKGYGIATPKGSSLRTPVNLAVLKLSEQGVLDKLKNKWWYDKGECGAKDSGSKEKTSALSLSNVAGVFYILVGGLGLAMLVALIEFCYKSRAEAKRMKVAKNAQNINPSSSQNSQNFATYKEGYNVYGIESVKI
Sequence of GluA2flip(R)-stargazin (A2R-stg TetON HEK293 cells) (Q9Y698 whole entry partner): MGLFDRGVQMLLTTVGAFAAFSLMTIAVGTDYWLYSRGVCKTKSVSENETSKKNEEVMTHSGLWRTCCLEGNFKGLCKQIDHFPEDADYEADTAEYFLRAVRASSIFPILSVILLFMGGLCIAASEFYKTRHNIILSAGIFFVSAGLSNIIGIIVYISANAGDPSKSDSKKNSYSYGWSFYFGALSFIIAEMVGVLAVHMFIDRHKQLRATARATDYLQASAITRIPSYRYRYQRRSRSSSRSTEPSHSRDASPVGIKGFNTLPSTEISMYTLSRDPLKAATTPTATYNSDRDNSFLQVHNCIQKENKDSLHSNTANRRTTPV
Protocol: Cell lines used in the VSD assays were TetON HEK293 cells. […] We used GluA2flip(R) TetON HEK cell clone #4 that doxycycline (DOX) dependently expresses GluA2flip(R) (A2R). The A2R cells were used as the base cell line to derive cell lines that co-express auxiliary subunits.
(§1) Greiner 384-pp round-bottom plates containing glutamate for the second add were dispensed by hand using a multi-channel pipet at 5X final concentration. A2R-stg cells were plated in 384-well BD PureCoat amine-coated plates (Corning Life Sciences) at 16k cells/well in DMEM medium supplemented with 10% heat-inactivated FBS and 100U/mL PenStrep antibiotic. […] Cells were incubated overnight (O/N) and washed 4 times in HBSS containing 20 mM HEPES, pH 7.4, on an ELX405CW liquid aspirator and dispenser (BioTek). Buffer was left in the wells and an equal amount of 2X FLIPR dye solution was added and incubated on the cells at room temperature for 45 min. Fluorescence signal was collected at 1 Hz using Ex. 480±20 nm/Em. 540±40 nm on a Hamamatsu Functional Drug Screening System 6000 (FDSS). Baseline signal was collected for 10 seconds followed by addition of 10 μl of 5X compound for a final concentration of 10 μM.
Hits were selected from this initial screen using 4 different criteria, which we termed CMPDslope, CMPDmaxmin, GLUslope, and GLUmaxmin. […] GLUslope is the fitted slope of the increase in fluorescence within 10 sec after adding glutamate. GLUmaxmin is the difference in the minimum and maximum value in fluorescence signal reached in the 100 sec window after adding glutamate. Compounds were classified as hits if they differed by 3 standard deviations of the mean for each criterion. Tier 1 hits were classified as those that hit in the GLUslope, GLUmaxmin, and CMPDmaxmin windows. Tier 2 hits were classified as compounds that hit in the GLUslope window and either the GLUmaxmin or CMPDmaxmin window. Tier 3 hits were classified as those that hit in only the GLUslope or the GLUmaxmin window. Tier 4 hits were classified as compounds that hit only in the CMPD window, CMPDslope or CMPDmaxmin. Hit selection was further narrowed using the criterion that their signal must return to near baseline values before entering the glutamate add window.
VSD concentration response curves (CRCs): After the above counter-screens, compounds that remained positive were moved forward to collect complete CRCs for A2R-stg and A2R-C3 cell lines. This assay was carried out in the same way as the VSD screening assay except a 10-point concentration curve, from 40 μM to 10 nM, was plated in triplicate for each compound on a single 384-well plate. Data were summarized by plotting them as %max GLUslope against log [compound] that was fit to a four-parameter logistical model. %max GLUslope is defined as a normalized GLUslope expressed as a percentage of the mean maximum GLUslope, defined as 100, where background mean vehicle control (VHLslope) were subtracted from both values on a per plate basis. Thus, %max GLU slope = (GLUslope-mean VHLslope/mean maxGLUslope-mean VHLslope).

GluA2-stargazin = settings: previously reported; cited from earlier work
[2] = molecular target: GluA2flip(R)-CNIH3 (A2R-C3 TetON HEK293 cells) (Homo sapiens, UniProt P42262, Q607R); test: VSD assay (counter-screen, CRC) on A2R-C3 cells; settings: for CMPDmaxmin: max-min 8-100 s; for CMPDmaxmin / CMPDSlope: compound only; for Glumaxmin: max-min normalized value 301-380 s; for Glumaxmin / GluSlope: compound+glutamate; for BaselineReturn: max 250-255 s minus min 0-5 s; for GluSlope: slope of normalized value 310-315 s; for CMPDSlope: slope 11-18 s
Sequence of GluA2flip(R)-CNIH3 (A2R-C3 TetON HEK293 cells) (P42262 25-883 isoform P42262-2 Q607R limits assumed): as the sequence (P42262 25-883 isoform P42262-2 Q607R limits assumed) above
Sequence of GluA2flip(R)-CNIH3 (A2R-C3 TetON HEK293 cells) (Q8TBE1 whole entry partner): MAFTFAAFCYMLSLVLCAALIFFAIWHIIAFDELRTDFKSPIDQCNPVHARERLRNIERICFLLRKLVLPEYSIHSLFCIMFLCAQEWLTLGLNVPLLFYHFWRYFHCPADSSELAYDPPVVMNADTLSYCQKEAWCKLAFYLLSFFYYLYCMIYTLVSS
Description: Cell lines used in the VSD assays were TetON HEK293 cells. This was the parental cell line for all stable cell lines created. We used GluA2flip(R) TetON HEK cell clone #4 that doxycycline (DOX) dependently expresses GluA2flip(R) (A2R). The A2R cells were used as the base cell line to derive cell lines that co-express auxiliary subunits.
as §1
This assay was carried out in the same way as the VSD screening assay except a 10-point concentration curve, from 40 μM to 10 nM, was plated in triplicate for each compound on a single 384-well plate. Data were summarized by plotting them as %max GLUslope against log [compound] that was fit to a four-parameter logistical model. %max GLUslope is defined as a normalized GLUslope expressed as a percentage of the mean maximum GLUslope, defined as 100, where background mean vehicle control (VHLslope) were subtracted from both values on a per plate basis. Thus, %max GLU slope = (GLUslope-mean VHLslope/mean maxGLUslope-mean VHLslope).

[3] = 3.90625e-6 M, per well, plate 58169DST7
[4] = 7.8125e-6 M, per well, plate 58169DST7
[5] = 1.5625e-5 M, per well, plate 58169DST7
[6] = 3.125e-5 M, per well, plate 58169DST7
[7] = 6.25e-5 M, per well, plate 58169DST7

EC50 [1]: 59.4 µM
BaselineReturn (maximal normalized value 250-255 s minus minimal 0-5 s) [1, 7]: 0.01812 and 0.0231 and 0.02286
CMPDmaxmin (maximal - minimal normalized value, 8-100 s, only compound present) [1, 7]: 0.02793 and 0.02317 and 0.02528
pctMAXslope (GluSlope as percentage MAX) [1, 7]: 40.7941% and 49.9185% and 35.6482%
pctMAXslopeCMPD (CMPDSlope as percentage MAX) [1, 7]: 27.4558% and 28.8276% and 28.6616%
BaselineReturn ([1]; 6.25e-5 M): 0.01973 and 0.018 and 0.01152
CMPDmaxmin ([1]; 6.25e-5 M): 0.02536 and 0.01826 and 0.01839
Glumaxmin ([1]; 6.25e-5 M): 0.2031 and 0.2196 and 0.1717
GluSlope ([1]; 6.25e-5 M): 6.2051e-6 and 9.036e-6 and 7.987e-6
activity at 250 µM ([1]; HEK293, read-out: AVE %MAXCMPDslope, 0.00025 M, average of wells): 30.3%
activity at 500 µM ([1]; HEK293, read-out: AVE %MAXCMPDslope, 0.0005 M, average of wells): 34.5%
activity at 1000 µM ([1]; HEK293, read-out: AVE %MAXCMPDslope, 0.001 M, average of wells): 42.6%
activity at […] ([1]; HEK293, read-out: AVE %MAXCMPDslope, […], average of wells): 29.5%
activity at 250 µM ([1]; HEK293, read-out: AVE %MAXslope, 0.00025 M, average of wells): 53.6%
activity at 500 µM ([1]; HEK293, read-out: AVE %MAXslope, 0.0005 M, average of wells): 57.1%
activity at 1000 µM ([1]; HEK293, read-out: AVE %MAXslope, 0.001 M, average of wells): 54.1%
activity at […] ([1]; HEK293, read-out: AVE %MAXslope, […], average of wells): 47%
activity at 250 µM ([1]; HEK293, read-out: pctMAX, 0.00025 M, Glumaxmin as percentage MAX (vhl and glutamate controls)): 30.3%
activity at 500 µM ([1]; HEK293, read-out: pctMAX, 0.0005 M, Glumaxmin as percentage MAX (vhl and glutamate controls)): 42.2%
activity at 1000 µM ([1]; HEK293, read-out: pctMAX, 0.001 M, Glumaxmin as percentage MAX (vhl and glutamate controls)): 48.3%
activity at 250 µM ([1]; HEK293, read-out: pctMAXslope, 0.00025 M, GluSlope as percentage MAX): 53.6%
activity at 500 µM ([1]; HEK293, read-out: pctMAXslope, 0.0005 M, GluSlope as percentage MAX): 58.2%
activity at 1000 µM ([1]; HEK293, read-out: pctMAXslope, 0.001 M, GluSlope as percentage MAX): 54.2%
activity at […] ([1]; HEK293, read-out: pctMAXslope, […], GluSlope as percentage MAX): 49.2%
activity at 250 µM ([1]; HEK293, read-out: pctMAXslopeCMPD, 0.00025 M, CMPDSlope as percentage MAX): 31.5%
activity at 500 µM ([1]; HEK293, read-out: pctMAXslopeCMPD, 0.0005 M, CMPDSlope as percentage MAX): 33.5%
activity at 1000 µM ([1]; HEK293, read-out: pctMAXslopeCMPD, 0.001 M, CMPDSlope as percentage MAX): 43%
activity at […] ([1]; HEK293, read-out: pctMAXslopeCMPD, […], CMPDSlope as percentage MAX): 28.5%
concentrations giving a slight increase in fluorescence in the absence of glutamate ([1]; compound-only window): > 250 µM
Glumaxmin ([2]; 0.0005 M ligand, per well): 0.1143 and 0.1458 and 0.1743
activity at 250 µM ([2]; HEK293, read-out: AVE %MAXCMPDslope, 0.00025 M ligand, average over wells): 20.2%
activity at 1000 µM ([2]; HEK293, read-out: AVE %MAXCMPDslope, 0.001 M ligand, average over wells): 29.1%
activity at […] ([2]; HEK293, read-out: AVE %MAXCMPDslope, […] ligand, average over wells): 18.9%
activity at 250 µM ([2]; HEK293, read-out: AVE %MAXslope, 0.00025 M ligand, average over wells): 33.8%
activity at 500 µM ([2]; HEK293, read-out: AVE %MAXslope, 0.0005 M ligand, average over wells): 40.3%
activity at 1000 µM ([2]; HEK293, read-out: AVE %MAXslope, 0.001 M ligand, average over wells): 54.1%
activity at […] ([2]; HEK293, read-out: AVE %MAXslope, […] ligand, average over wells): 25.6%
activity at 250 µM ([2]; HEK293, read-out: pctMAXslope, 0.00025 M ligand, GluSlope as percentage MAX, per well): 30.3%
activity at 500 µM ([2]; HEK293, read-out: pctMAXslope, 0.0005 M ligand, GluSlope as percentage MAX, per well): 37%
activity at […] ([2]; HEK293, read-out: pctMAXslope, […] ligand, GluSlope as percentage MAX, per well): 21%
activity at 250 µM ([2]; HEK293, read-out: pctMAXslopeCMPD, 0.00025 M ligand, CMPDSlope as percentage MAX of GluSlope controls, per well): 19.4%
activity at 500 µM ([2]; HEK293, read-out: pctMAXslopeCMPD, 0.0005 M ligand, CMPDSlope as percentage MAX of GluSlope controls, per well): 22.3%
activity at 1000 µM ([2]; HEK293, read-out: pctMAXslopeCMPD, 0.001 M ligand, CMPDSlope as percentage MAX of GluSlope controls, per well): 30%
activity at […] ([2]; HEK293, read-out: pctMAXslopeCMPD, […] ligand, CMPDSlope as percentage MAX of GluSlope controls, per well): 18.5%
Compound: O=C(c1ccc2c(c1)OCCO2)N1CCCCC1 [CX-546, 1-(1,4-benzodioxan-6-ylcarbonyl)piperidine]
CMPDmaxmin (maximal - minimal normalized value, 8-100 s, only compound present) [1, 3]: 0.02005 and 0.02265 and 0.02255 and 0.0215 and 0.02263
pctMAX (Glumaxmin as percentage MAX) [1, 3]: -20.3423% and -18.5877% and -17.4231% and -25.653% and -23.4431%
pctMAXslope (GluSlope as percentage MAX) [1, 3]: 19.0119% and 16.1163% and 16.1435% and 23.5293% and 24.5477% and 19.9769%
pctMAXslopeCMPD (CMPDSlope as percentage MAX) [1, 3]: 26.8078% and 27.859% and 27.6784% and 25.3948% and 25.8066% and 27.049%
CMPDmaxmin (maximal - minimal normalized value, 8-100 s, only compound present) [1, 4]: 0.02204 and 0.02518 and 0.02221 and 0.01901
pctMAXslope (GluSlope as percentage MAX) [1, 4]: 18.0524% and 15.893% and 18.8435% and 18.5798% and 25.5404% and 27.1839%
pctMAXslopeCMPD (CMPDSlope as percentage MAX) [1, 4]: 27.7492% and 27.8022% and 28.8582% and 27.2592% and 26.4835% and 26.0048%
CMPDmaxmin (maximal - minimal normalized value, 8-100 s, only compound present) [1, 5]: 0.02181 and 0.01695 and 0.02869 and 0.01943 and 0.02297
pctMAXslopeCMPD (CMPDSlope as percentage MAX) [1, 5]: 28.6064% and 25.6086% and 27.9557% and 25.483% and 25.9044% and 26.6639%
pctMAX (Glumaxmin as percentage MAX) [1, 6]: -24.1315% and -27.3641% and -24.1538% and -25.136% and -22.907% and -18.6431%
pctMAXslope (GluSlope as percentage MAX) [1, 6]: 27.6745% and 23.6277% and 22.7715% and 21.1161% and 24.5423% and 29.8099%
pctMAXslopeCMPD (CMPDSlope as percentage MAX) [1, 6]: 26.044% and 27.2438% and 26.2272% and 24.5792% and 27.7844% and 28.3201%
BaselineReturn ([1]; 0.00025 M): 0.05169 and 0.04966 and 0.04304 and 0.05412 and 0.05858 and 0.04633
CMPDmaxmin ([1]; 0.00025 M): 0.05366 and 0.04763 and 0.04669 and 0.05717 and 0.05497 and 0.04716
Glumaxmin ([1]; 0.00025 M): 0.3546 and 0.3256 and 0.3581 and 0.3601 and 0.3987 and 0.3619
CMPDSlope ([1]; 0.00025 M): 2.511e-6 and 1.582e-6 and 1.531e-6 and 1.914e-6 and 1.992e-6 and 1.6067e-6
GluSlope ([1]; 0.00025 M): 1.516e-5 and 1.442e-5 and 1.434e-5 and 1.326e-5 and 1.8177e-5 and 1.566e-5
BaselineReturn ([1]; 0.0005 M): 0.1016 and 0.09236 and 0.09814 and 0.1005 and 0.08945 and 0.09494
CMPDmaxmin ([1]; 0.0005 M): 0.09292 and 0.08599 and 0.08883 and 0.08871 and 0.09266 and 0.08518
Glumaxmin ([1]; 0.0005 M): 0.4227 and 0.415 and 0.4148 and 0.4609 and 0.4831 and 0.4327
CMPDSlope ([1]; 0.0005 M): 3.674e-6 and 4.188e-6 and 3.738e-6 and 3.852e-6 and 5.683e-6 and 4.257e-6
GluSlope ([1]; 0.0005 M): 1.777e-5 and 1.508e-5 and 1.548e-5 and 1.731e-5 and 1.8778e-5 and 1.858e-5
BaselineReturn ([1]; 0.001 M): 0.1819 and 0.178 and 0.2248 and 0.2011 and 0.1897 and 0.1856
CMPDmaxmin ([1]; 0.001 M): 0.1715 and 0.1673 and 0.213 and 0.1892 and 0.174 and 0.1789
Glumaxmin ([1]; 0.001 M): 0.4573 and 0.4826 and 0.4107 and 0.4115 and 0.4861 and 0.4796
CMPDSlope ([1]; 0.001 M): 9.085e-6 and 8.904e-6 and 9.403e-6 and 8.729e-6 and 8.585e-6 and 8.384e-6
GluSlope ([1]; 0.001 M): 1.548e-5 and 1.672e-5 (2×) and 1.1033e-5 and 1.693e-5 and 1.578e-5
EC50 (GluA2-stargazin): 563 µM
CMPDmaxmin ([2]; 3.90625e-6 M ligand, per well): 0.02275 and 0.02429 and 0.01798 and 0.02168
CMPDmaxmin ([2]; 7.8125e-6 M ligand, per well): 0.02523 and 0.02353 and 0.02165 and 0.01735
Glumaxmin ([2]; 7.8125e-6 M ligand, per well): 0.04101 and 0.05338 and 0.04284 and 0.03307 and 0.0299 and 0.0291
CMPDmaxmin ([2]; 6.25e-5 M ligand, per well): 0.02083 and 0.02655 and 0.02189 and 0.02084 and 0.01632
Glumaxmin ([2]; 6.25e-5 M ligand, per well): 0.04091 and 0.0333 and 0.02423 and 0.04193 and 0.044 and 0.03344
BaselineReturn ([2]; 0.00025 M ligand, per well): 0.0251 and 0.02832 and 0.03028 and 0.03411 and 0.02776 and 0.02771
CMPDmaxmin ([2]; 0.00025 M ligand, per well): 0.02518 and 0.02777 and 0.02573 and 0.03151 and 0.03447 and 0.02604
Glumaxmin ([2]; 0.00025 M ligand, per well): 0.07039 and 0.07337 and 0.08523 and 0.112 and 0.08025
GluSlope ([2]; 0.00025 M ligand, per well): 6.934e-6 and 8.592e-6 and 7.437e-6 and 1.202e-5 and 1.111e-5 and 6.283e-6
BaselineReturn ([2]; 0.0005 M ligand, per well): 0.05295 and 0.05148 and 0.05075 and 0.04719 and 0.05673 and 0.04937
CMPDmaxmin ([2]; 0.0005 M ligand, per well): 0.05637 and 0.05305 and 0.05109 and 0.05302 and 0.05564 and 0.06158
CMPDSlope ([2]; 0.0005 M ligand, per well): 2.7882e-6 and 3.22e-6 and 3.04e-6 and 3.857e-6 and 3.969e-6 and 3.136e-6
GluSlope ([2]; 0.0005 M ligand, per well): 1.038e-5 and 1.007e-5 and 1.121e-5 and 1.228e-5 and 1.22e-5 and 1.66e-5
BaselineReturn ([2]; 0.001 M ligand, per well): 0.1285 and 0.1243 and 0.1327 (2×) and 0.1383 and 0.1333
CMPDmaxmin ([2]; 0.001 M ligand, per well): 0.1223 and 0.1248 and 0.1314 and 0.1303 and 0.1374 and 0.1301
CMPDSlope ([2]; 0.001 M ligand, per well): 6.79e-6 and 6.675e-6 and 5.635e-6 and 5.488e-6 and 6.247e-6 and 7.073e-6
